Reference: the CheMixHub viscosity set

Test: xn = mol fraction of the nth substance listed

Nc1ccccc1 + CCCCCCCCO
viscosity [mPa·s], 100 kPa
Settings | x1 = 0.0862 | x1 = 0.1575 | x1 = 0.2382 | x1 = 0.3514 | x1 = 0.4471 | x1 = 0.5637 | x1 = 0.6558 | x1 = 0.7476 | x1 = 0.8555 | x1 = 0.9421
293.15 K | 8.01 | 7.27 | 6.6 | 5.83 | 5.28 | 4.66 | 4.4 | 4.19 | 4.03 | 4.14
303.15 K | 5.66 | 5.15 | 4.7 | 4.15 | 3.77 | 3.36 | 3.15 | 3.03 | 2.93 | 3
313.15 K | 4.11 | 3.75 | 3.47 | 3.1 | 2.85 | 2.57 | 2.43 | 2.34 | 2.3 | 2.36
323.15 K | 3.09 | 2.85 | 2.63 | 2.37 | 2.18 | 1.98 | 1.89 | 1.83 | 1.81 | 1.86

CCNCC + CCCCCCCO
viscosity [mPa·s], 100 kPa
Settings | x1 = 0.0806 | x1 = 0.1606 | x1 = 0.2415 | x1 = 0.3492 | x1 = 0.4394 | x1 = 0.5613 | x1 = 0.6506 | x1 = 0.7401 | x1 = 0.8503 | x1 = 0.9414
293.15 K | 6.26 | 5.55 | 4.87 | 4.03 | 3.37 | 2.55 | 2.02 | 1.52 | 0.947 | 0.532
303.15 K | 4.47 | 3.94 | 3.45 | 2.83 | 2.36 | 1.78 | 1.4 | 1.07 | 0.7 | 0.43
313.15 K | 3.3 | 2.91 | 2.53 | 2.07 | 1.72 | 1.3 | 1.03 | 0.79 | 0.52 | 0.35
323.15 K | 2.47 | 2.17 | 1.89 | 1.54 | 1.28 | 0.97 | 0.78 | 0.6 | 0.42 | 0.3

COCCOCCOCCOC + CCCCCCCO
101 kPa
Settings | viscosity [mPa·s]
293.15 K, x1 = 0.05281 | 5.682
293.15 K, x1 = 0.09018 | 5.069
293.15 K, x1 = 0.2084 | 3.662
293.15 K, x1 = 0.2924 | 3.185
293.15 K, x1 = 0.4036 | 2.821
293.15 K, x1 = 0.5165 | 2.541
293.15 K, x1 = 0.5861 | 2.393
293.15 K, x1 = 0.6984 | 2.25
293.15 K, x1 = 0.8022 | 2.21
293.15 K, x1 = 0.8977 | 2.195
293.15 K, x1 = 0.9591 | 2.185
303.15 K, x1 = 0.05495 | 4.164
303.15 K, x1 = 0.08973 | 3.734
303.15 K, x1 = 0.2069 | 2.83
303.15 K, x1 = 0.2951 | 2.469
303.15 K, x1 = 0.403 | 2.197
303.15 K, x1 = 0.504 | 2.013
303.15 K, x1 = 0.5851 | 1.916
303.15 K, x1 = 0.705 | 1.813
303.15 K, x1 = 0.7893 | 1.785
303.15 K, x1 = 0.9012 | 1.776
303.15 K, x1 = 0.9516 | 1.777
313.15 K, x1 = 0.0542 | 3.158
313.15 K, x1 = 0.09194 | 2.876
313.15 K, x1 = 0.2077 | 2.266
313.15 K, x1 = 0.2951 | 2
313.15 K, x1 = 0.4053 | 1.782
313.15 K, x1 = 0.5078 | 1.654
313.15 K, x1 = 0.59 | 1.579
313.15 K, x1 = 0.7035 | 1.515
313.15 K, x1 = 0.795 | 1.483
313.15 K, x1 = 0.9054 | 1.474
313.15 K, x1 = 0.9487 | 1.471
